# Assay results reported in US20250186592A1, “TETRAZINE CONJUGATES FOR IN VIVO TARGETED DELIVERY OF A PAYLOAD” (Tambo, Inc., priority 2021, published 2025).
# Square brackets hold non-standard residues; d marks the D form. Peptide text beside a SMILES is read from it. * marks the point of attachment. Dolaproine = CO[C@@H]([C@@H]1CCCN1)[C@@H](C)C(=O)O; Dil = CC[C@H](C)[C@H](NC)[C@@H](CC(=O)O)OC; X1 = C[C@@H](N*)[C@@H](O)c1ccccc1; NMeV = CN[C@H](C(=O)O)C(C)C
# Columns and labels:
# NCI-N87 xenograft = assay: Efficacy study in subcutaneous NCI-N87 xenograft model in CB17 SCID mice; assay type: in vivo, mice (Mus musculus); conditions: for mean tumor size on day 35: vehicle 1009 mm^3; for TGI: P<0.05 vs vehicle
# Experimental: Methods: 110 CB17 SCID female mice (Mus musculus; age: 6-8 weeks; body weight: 18-22 g; Shanghai LingChang Biotech Co., LTD) were inoculated subcutaneously at right flank with NCI-N87 cells (3×10^6 cells was suspended in 0.2 mL mixture of 1640 with (1640: Matrigel=1:1) BD Matrigel for tumor development). After 7 days inoculation, 70 animals were divided into 8 groups with 10 animals in group 1, 2, 5, 6, 7 and 8, and with 5 animals in group 3 and 4 using stratified random grouping based on their body weight and tumor volume. The treatments were started from the mean tumor size reached to 158 mm^3 (106-221 mm^3) for these 70 mice. Group 1: Vehicle, i.v., QD×3×2 weeks. Group 2: MMAE, 0.25 mpk, i.v., QW×2 weeks. […] Group 4: Compound A, 20 mpk, i.v., QD×3×2 weeks. […] Group 7: SQL70, 100 μL, i.t.×1 dose+Compound A, 1.9 mpk, i.v., QD×5. Group 8: T-DM1, 3 mpk, i.v., QW×2 weeks. The tumor sizes and body weight were measured twice a week during the treatment. The dosing schedule was finished on day PG-D10. The entire study was terminated on PG-D37 and collected all the tumor samples for group 5 and 6, and 3 tumors/group for group 1 and 2.
# Experimental Methods and Procedures: Cell preparation and implantation: The NCI-N87 (Gastric carcinoma, ATCC® CRL-5822™, Lot No. 7686255) cells were maintained in vitro as a monolayer culture in RPMI-1640 medium supplemented with 10% heat inactivated fetal bovine serum, 100 U/mL penicillin and 100 μg/mL streptomycin at 37° C. in an atmosphere of 5% CO2 in air. The tumor cells were routinely sub-cultured per 5 days by trypsin-EDTA treatment. The cultured NCI-N87 cells were harvested, re-suspended in base medium at a density of 1.5×10^7 cells/mL with viability >90%. Each mouse was inoculated subcutaneously at the right flank with 3×10^6 in 0.2 mL mixture of 1640 with (1640: Matrigel=1:1) BD Matrigel for tumor development.
# Randomization and administration: The treatments were started from the mice were grouped based on their mean tumor size reached 158 mm^3 (106-221 mm^3) for group 1-8. Each group consisted of 10 or 5 mice. The test article was administrated to the mice according to the regimen as shown in the experimental design table (Table 4).
# Tumor Measurements and Endpoints: The major endpoint is to see if the tumor growth can be delayed or mice can be cured. […] The tumor sizes were then used for the calculations of both tumor growth inhibition (TGI) values.
# The T/C value (in percent) is an indication of antitumor effectiveness, T/C (%)=RTVTreatment/RTVControl×100% (RTVTreatment: the mean RTV of the treatment group; RTVControl: the mean RTV of the vehicle treated group). RTV (relative tumor volume)=TVDayN/TVDay0. TVDayN and TVDay0 is the tumor volume on day N and Day 0 respectively. T/C (%)≤42% is considered as significant antitumor activity and <10% is considered as highly significant antitumor activity by the United States National Cancer Institute criteria.
# Statistical Analysis: The tumor volume between different groups was analyzed by two-way repeated measures ANOVA followed by the Tukey's post hoc test. All data were analyzed using GraphPad Prism 6.0. P<0.05 is considered to be statistically significant.
# [1] = LCMS analysis of drug release by tetrazines; conditions: tetrazine 20 μM, TCO-MMAE 10 μM in PBS
# Experimental: A solution of each tetrazine (20 μM final concentration) in PBS is mixed with TCO-MMAE (10 μM final concentration). The solution is mixed thoroughly and an aliquot removed at the appropriate time for analysis by LCMS.
# [2] = Group 2: MMAE 0.25 mpk i.v. QW×2 weeks, day 35
# [3] = Group 4: Compound A 20 mpk i.v. QD×3×2 weeks, day 35
Compound,% TCO-MMAE consumed (1 h) [1] [%],% MMAE released (24 h) [1] [%],also measured
T-DM1,–,–,"mean tumor size on day 35 (NCI-N87 xenograft; Group 8: T-DM1 3 mpk i.v. QW×2 weeks, day 35): 873 mm^3"
Cc1nnc(-c2ccc(C(F)(F)F)c(CN)c2)nn1,100,46,–
Cc1nnc(-c2cocn2)nn1,42,62,–
CC[C@H](C)[C@@H]([C@@H](CC(=O)N1CCC[C@H]1[C@H](OC)[C@@H](C)C(=O)N[C@H](C)[C@@H](O)c1ccccc1)OC)N(C)C(=O)[C@@H](NC(=O)[C@@H](NC)C(C)C)C(C)C [MMAE] (H-[NMeV]V[Dil][Dolaproine]-X1),–,–,"T/C (NCI-N87 xenograft; [2]): 57.50%; TGI (NCI-N87 xenograft; [2]): 49.68%; mean tumor size on day 35 (NCI-N87 xenograft; Group 2: MMAE 0.25 mpk i.v. QW×2 weeks, day 35 after grouping): 586 mm^3"
Cc1nnc(-c2ncccn2)nn1,100,29,–
Cc1nnc(-n2cccn2)nn1,81,35,–
CC[C@H](C)[C@@H](C(CC(=O)N1CCC[C@H]1[C@H](OC)[C@@H](C)C(=O)N[C@H](C)[C@@H](O)c1ccccc1)OC)N(C)C(=O)[C@@H](NC(=O)[C@H](C(C)C)N(C)C(=O)O[C@H]1/C=C/CC[C@@](C)(C(=O)O)CC1)C(C)C (stereo partly drawn) [Compound A],–,–,"T/C (NCI-N87 xenograft; [3]): 62.12%; TGI (NCI-N87 xenograft; [3]): 41.74%; mean tumor size on day 35 (NCI-N87 xenograft; Group 4: Compound A 20 mpk i.v. QD×3×2 weeks, day 35 after grouping): 653 mm^3"
Cc1nnc(-c2cn(C)cn2)nn1,74,40,–
Cc1nnc(-c2ccccn2)nn1,100,28,–
Cc1nnc(-c2ccc(CN)c(C(F)(F)F)c2)nn1,100,51,–
